Results taken from EP4173621A1 (priority 2021, dated 2023).
Read-outs that look alike come from different tables or passages of the source.

How the values were obtained:
[1] = test system: lentiviral vectors pseudotyped with the SARS-CoV-2 Spike protein (CoV-2 LV); assay: microbe, parasite or virus in culture; assay type: cell-based; conditions: Severe acute respiratory syndrome coronavirus 2; 293-ACE2 cells (Table 1)
VSVg pseudotyped LV = assay type: cell-based
[2] = molecular target: SARS-CoV-2 S-RBD(His)6 and human ACE2-Biot interaction (Severe acute respiratory syndrome coronavirus 2, UniProt P0DTC2); assay: AlphaLISA competition assay of the S-RBD/ACE2 interaction; assay type: binding, SARS-CoV-2 / human; conditions: at 25 µM of drug; 3 nM of each protein
[3] = test system: SARS-CoV-2 reference strain; assay: microbe, parasite or virus in culture; assay type: cell-based
[4] = test system: SARS-CoV-2 reference strain; assay: microbe, parasite or virus in culture; assay type: cell-based; conditions: Severe acute respiratory syndrome coronavirus 2, Calu-3
SARS-CoV-2 = assay: Antiviral activity summarised over all the cell lines; assay type: cell-based
HEK293T-ACE2 = conditions: HEK-293T cell line, within the 0-50µM range
A549-ACE2 = conditions: A549 cell line, within the 0-50µM range
Calu3 = Calu3 cell line, within the 0-50µM range
Caco2 = Caco2 cell line, within the 0-50µM range
in vitro [5] = conditions: human
in vitro [6] = conditions: human; remark: listed apart in the source
in vitro [7] = conditions: human; remark: listed apart in the source

SMILES: C(=C\c1nc2ccccc2s1)/c1cccc(N(c2cccc(/C=C/c3nc4ccccc4s3)c2)c2cccc(/C=C/c3nc4ccccc4s3)c2)c1 [TP m 3BTZ compound, Tris {3-(2-(benzothiazole-2-yl)vinylphenyl}amine)]
- IC50 [1]: 1 µM
- effect on the VSVg LVs infectivity (VSVg pseudotyped LV): without significant effect
- inhibition of the formation of the RBD/ACE2 complex (AlphaLISA) [2]: 50%
- inhibition of the viral replication ([3]; A549-ACE2 cells, SARS-CoV-2 reference strain, 24 hours): induced an inhibition of the viral replication
- IC50 ([3]; Severe acute respiratory syndrome coronavirus 2, A549-ACE2, A 549-ACE2 cells (Table 1)): 2.5 µM
- IC50 ([4]; Calu3 cells (Table 1), read-out: IC50): 5 µM
- IC50 ([4]; Calu3 cells, SARS-CoV-2 reference strain, 24 hours, read-out: concentration leading to 50% inhibition of the viral replication): ~1 µM
- IC50 (SARS-CoV-2; Severe acute respiratory syndrome coronavirus 2, among all the cell lines): 0.25 to 5 µM
- selectivity indexes (SARS-CoV-2; among all the cell lines): > 10
- selectivity index (SI) (SARS-CoV-2; based on apparent IC50 and CC50 in the different cell lines): higher than 50
- cytotoxicity (MTT assay) (HEK293T-ACE2): no or poor cytoxoxicity
- cytotoxicity (MTT assay) (A549-ACE2): no or poor cytoxoxicity
- cytotoxicity (MTT assay) (Calu3): no or poor cytoxoxicity
- cytotoxicity (MTT assay) (Caco2): no or poor cytoxoxicity
- CC50 (in vitro [5]): > 50 µM
- CC50 (in vitro [6]): > 50 µM
- CC50 (in vitro [7]): > 50 µM
